In patent publication US20240216310A1, “Rapid Onset Therapeutic Anti-Depression Ketosis Enabled by D-BetaHydroxyButyric Acid Systems, Methods and Compounds for Psilocybin co-administration” (American Ketone Therapeutics LLC, priority 2022, published 2024):

Assays:
[1] = Phase 2b clinical trial reported by Compass Pathways; cited from earlier work
[2] = Blood ketone levels by Abbott blood test strip after D-BHB oral drink; format: in vivo, human
Source text: FIG. 8 is a graphical illustration of D-BHB exogenous ketone blood levels. FIG. 8 details rapid ketosis confirmed by Abbott blood test strip after 15 g D-BHB with palatability agent administered by oral drink. Blood ketone levels document rise from 0.1 mmol/L to 2.7 mmol/L. By supplementing an individual with exogenous ketone preparations incorporating the natural D-Beta-HydroxyButyric Acid (D-BHB) optionally combined with a palatability agent, internal body ketone levels rapidly rise when directly compared with non-supplementing individuals. The ketone body D-BHB is first and foremost an energy source, which is directly and preferentially metabolized by the brain. D-BHB is also active as a signaling mechanism and neuro-inflammation reduction agent, resulting in broad and beneficial mental health related benefits.
FIG. 9 is a graphical illustration of D-BHB exogenous ketone blood levels. FIG. 9 details rapid ketosis within 45 minutes confirmed by Abbott blood test strip after 10 g D-BHB with palatability agent administered by oral drink. Blood ketone levels document rise from 0.2 mmol/L to 1.8 mmol/L and 0.6 mmol/L to 1.9 mmol/L in a variety of test subjects. FIG. 9 reinforces the fact that supplementation by utilizing free D only BetaHydroxyButyric Acid without ketone salt or ketone ester is a reliable, reproducible method and system for rapid ketone level increase for mental health protection and maintenance. While amounts of free D only BetaHydroxyButyric Acid taken for mental health anti-depression effects may vary, it is an anticipated preferred embodiment that levels are between 5 and 30 grams of D only BetaHydroxyButyric Acid taken as needed for optimum anti-depression effects. Alternate embodiments may include lower or higher amounts, however, experimental evidence has confirmed optimal administration in this range.

[3] = Continuous glucose monitoring (Abbot Libre CGM) with carbohydrate challenge; format: in vivo, human; conditions: 10 g given 45 minutes before 50 g carbohydrate ingestion; compared with unsupplemented ingestion
Source text: FIG. 10 is a graphical illustration of continuous monitoring of body glucose levels. FIG. 10 depicts continuous glucose monitoring levels with carbohydrate challenge documented by Abbot Libre Continuous Glucose Monitoring (CGM) device. In this illustrative embodiment, glucose levels from a 50 g carbohydrate ingestion are depicted unaided by free D-BetaHydroxyButyric Acid on the left and repeated the following day with two 50 g carbohydrate ingestions accompanied by 10 g free D-BetaHydroxyButyric Acid administered 45 minutes before the carbohydrate insult. The data is noteworthy in that while the equivalent amount of identical (nacho chip platter) carbohydrates were consumed, the rapid glucose spike depicted in the unsupplemented ingestion is not found with 10 g D-BetaHydroxyButyric Acid accompaniment. […] As free D-BetaHydroxyButyric Acid can lower glucose while rapidly increasing ketone levels, it is believed that obtaining high ketones while lowering glucose will yield additional anti-depression benefits to high glucose sensitive individuals suffering from depression.

[4] = Continuous Ketone Meter (CKM) monitoring of body ketone levels and deep sleep; format: in vivo, human; conditions: 5 grams consumed 45 minutes prior to bedtime
Source text: FIG. 11 is a graphical illustration of continuous monitoring of body ketone levels resulting in improved deep sleep time due to enhanced D-BHB levels according to the claimed invention. It is noteworthy that consumption of even small amounts of free D-BetaHydroxyButyric Acid can give rise to therapeutic ketosis levels as measured by Continuous Ketone Meter (CKM). […] While free D-BetaHydroxyButyric Acid is not a sedative, even small amounts can greatly improve deep sleep quantity and quality. It is an intended and foreseeable embodiment application to increase deep sleep with free D-BetaHydroxyButyric Acid with the aim of improving mental health and anti-depression resiliency.

[5] = Preliminary data on anxiety and depression after D-BetaHydroxyButyric Acid administration; format: in vivo, human; conditions: individuals with mild to moderate depression, given in the absence of a salt or ester
Source text: Moreover, dietary interventions for ketogenic diet treatment of bipolar disorder are yielding compelling results. The administration of the natural form of D-BetaHydroxyButyric Acid as an exogenous compound has rapid onset and direct benefits to brain bioenergenics. […] The claimed form of D-BetaHydroxyButyric Acid is bioidentical to the natural form of ketone generated endogenously and chemically distinguishable from the artificial ‘ketone salt’ and synthetic ‘ketone ester’. This application discloses two primary embodiments for the treatment of psychiatric depressive disorders: the use of bioidentical or ‘free D-BetaHydroxyButyric Acid’ alone as well as in combination with Psilocybin derived pharmaceuticals.

[6] = previously known exogenous ketone compounds, from literature; cited from earlier work

With CN(C)CCc1c[nH]c2cccc(OP(=O)(O)O)c12 [Comp360] as the compound, how does the “Outcome in treatment-resistant depression” value [1] read?
Its value is “promising results”.

What does the source list for CC(O)CC(=O)O [D-BHB, D-Beta-HydroxyButyric Acid]?
Time to rapid ketosis ([2]; 10 g D-BHB with palatability agent): ≤ 45 min; Blood ketone level after administration ([2]; 10 g D-BHB with palatability agent, test subject rising from 0.2 mmol/L): 1.8 mmol/L; Blood ketone level after administration ([2]; 10 g D-BHB with palatability agent, test subject rising from 0.6 mmol/L): 1.9 mmol/L; Blood ketone level after administration ([2]; 15 g D-BHB with palatability agent, rise from 0.1 mmol/L): 2.7 mmol/L; Rapid glucose spike after carbohydrate ingestion [3]: not found; Deep sleep quantity [4]: enhance the quantity of deep sleep obtained; Increase in body ketone level ([4]; CKM): 1.5 mmol/L; Reduction of anxiety and depression [5]: often benefit

With C[C@@H](O)CCOC(=O)C[C@@H](C)O [ketone ester, (R)-3-hydroxybutyl (R)-3-hydroxybutyrate] as the compound, how does the “Ketone increase (blood level)” value [6] read?
The value was “higher ketone level response”.
